The values that follow come from patent publication US10864269B2, “Therapeutic combinations comprising anti-CD73 antibodies and uses thereof” (MedImmune Limited, priority 2014, dated 2020).

Assay [1] relates to CD4+CD25− T cell proliferation. Put plainly: AMP-mediated suppression of CD4+CD25− T cell proliferation. As to conditions: primary human CD4+CD25− T cells, 100 or 200 μM AMP, 72 hours, CFSE. The format is cell-based. As to the method: In an assay for AMP-mediated T-cell suppression, primary human CD4^+ T cells depleted of CD25^+ cells were isolated from the content of leukocyte cones and used as effector cells; each cone was processed separately. Briefly, the content from a leukocyte cone was diluted in PBS, then layered over FICOLL-PAQUE® Plus (GE Healthcare, Chalfont St Giles, UK) and centrifuged at 400×g for 40 minutes with brakes turned off. Peripheral blood mononuclear cells (PBMC) were then isolated from the interface and washed with PBS by centrifugation at 200×g for 10 minutes. Supernatant was discarded and cells were suspended in PBS. Viable cells were determined, then pelleted at 350×g for 5 minutes and suspended in ROBOSEP buffer (Stem Cell, Grenoble, France) at a concentration of 5×10^7 per mL. […]
Isolated effector cells were labeled with CFSE probe (3 μM) using the CELLTRACE CFSE cell proliferation kit (Life Technologies, Paisley, UK) at a cell density of 1×10^6 cells per mL in PBS containing 0.1% BSA with an incubation period of 15 minutes at 37° C. […] Phen0203 hIgG1 was received as a ready-to-use formulation (Medlmmune, Gaithersburg, Md.) and was diluted in phosphate-buffered saline (PBS). R347 was received as a ready-to-use formulation (Medlmmune, Gaithersburg, Md.) and was diluted in PBS. […]

For the next assay, the system named is IFNγ. Kind of assay: Mixed leukocyte reaction, IFNγ supernatant levels. As to conditions: human mixed leukocyte reaction, 72 hours, 1 μM each agent. Format: cell-based. As for the experimental part:
(§1) The release of immune activating cytokines IFNγ and TNFα was evaluated in human mixed leukocyte cultures with anti-CD73 monoclonal antibody alone and in combination with an adenosine receptor inhibitor (A2ARi). The levels of IFNγ and TNFα in supernatants were detected by ELISA. Human peripheral blood lymphocytes were set up in a mixed leukocyte reaction for 72 hours and stimulated with anti-CD73 alone, A2AR inhibitor alone or both agents. Peripheral blood mononuclear cells from pairwise combinations of 8 donors were incubated for 72 hours in the presence of 1 μM anti-CD73 antibody MEDI9447 and 1 μM A2ARi SCH58261, either alone or in combination. After incubation, supernatant levels of Interferon gamma (IFNγ) and Tumor Necrosis Factor Alpha (TNFα) were measured using a Mesoscale ELISA plate. The levels of IFNγ and TNFα observed after incubation with each compound were plotted as duplicate fold-control values using levels from incubation with an isotype control antibody as a negative control.

The next assay concerns TNFα. Put plainly: Mixed leukocyte reaction, TNFα supernatant levels. Format: cell-based. As to conditions: human mixed leukocyte reaction, 72 hours, 1 μM each agent. As for the experimental part:
as §1

In assay [2] the test system is CT26 murine colon carcinoma. Kind of assay: CT26 syngeneic tumor model, MEDI9447 mIgG1 with anti-PD-1. Format: in vivo, Balb/C mice. As to the method: Syngeneic tumors were established by subcutaneous (SC) injection of 0.1 ml of 5×10^6 CT26 cells/ml suspended in HBSS into the right flanks of 8- to 10-week-old animals.
Tumors were measured by caliper and the volumes of tumors (TV) were calculated using the following formula: TV=(L×W^2)/2 (1)
Mice were randomized into groups based on bodyweight. There were no animal substitutions. 60 female Balb/c mice were used in this study.
Animals were randomly assigned into 6 groups. Animals were administered MEDI9447(mIgG1). Test articles were administered by intraperitoneal (IP) injection twice weekly starting on Day 3.
CT26 murine colon carcinoma were implanted into syngeneic Balb/C mice and treated with anti-CD73 (MEDI9447 mIgG1; 10 mg/kg), anti-PD1 (0.5 mg/kg) or the combination (10 mg/kg anti-CD73 and 0.5 mg/kg anti-PD1). […] Tumor volumes from each group of animals were plotted for individual animals out to study day 40. No control group mice were tumor free by the end of the 40 day study period (See FIG. 6). […] None of the control group mice were tumor free by the end of the study. CT26 tumors were measured in mice treated with anti-CD73 (MEDI9447 mIgG1), anti-PD1 or the combination of anti-CD73 and anti-PD1. Mice were measured until study day 40, and humanely sacrificed once tumors reached 2000 mm^3. […] Median survival increased from 25 and 33 days (anti-CD73 and anti-PD1, respectively) compared to “undefined” at day 40 for the combination.

Setting [3] is: study day 40, anti-CD73 10 mg/kg, anti-PD1 0.5 mg/kg, ip 2x weekly, 4 doses.

Consider `Nc1ncnc2c1ncn2[C@@H]1O[C@H](COP(=O)(O)CP(=O)(O)O)[C@@H](O)[C@H]1O` [APCP, adenosine 5′-(α,β-methylene)diphosphate], for which the “T cell proliferation in the presence of AMP” value in assay [1] is reported as “increase of T-cell proliferation”.
Turning to `Nc1nc2c(cnn2CCc2ccccc2)c2nc(-c3ccco3)nn12` [SCH58261, reference compound], in assay [1], the “T cell proliferation in the presence of AMP” value is recorded as “increase of T-cell proliferation”. Moreover, in the assay with IFNγ, the IFNγ supernatant levels entry is given as “capable of inducing”. The “TNFα supernatant levels / secretion” value with TNFα was “capable of inducing”.
Regarding “MEDI9447 mIgG1: anti-CD73 antibody MEDI9447 in murine IgG1 format”, in assay [2] (CT26, followed until study day 40), the Median survival is 25 days. In assay [2] (setting [3]), the Survival was found to be 10% and the Tumor free mice is given as 10%. For the same compound, in the assay with IFNγ, the IFNγ supernatant levels result is “capable of inducing”. Besides, the “TNFα supernatant levels / secretion” value in the assay with TNFα is on record as “capable of inducing”.
